Measurements from patent US9790203B2, “Inhibitor compounds of phosphodiesterase type 10A” (ABBVIE DEUTSCHLAND GMBH & CO. KG, priority 2012, dated 2017).

Assays:
PDE10A = PDE10A (Homo sapiens (Human), UniProt Q9Y233); test: Measurement of PDE activity (HTRF cAMP kit, recombinant PDE); format: biochemical; conditions: recombinant PDE10, 20 nM cyclic nucleotide substrate, 60 minutes at 29 C
Protocol: The recombinant PDE proteins are used in in vitro enzymatic reaction for measurement of PDE activity. These recombinant proteins, including PDE10A (human, rat and mouse PDE10) and isoforms of PDEs 1, 3, 4, and 5, were purchased from commercial vendor BPS Bioscience. The enzymatic activity of PDEs was determined by cAMP measurement kit from CisBio (IBA) using HTRF technology.
The PDE enzymatic reaction was carried out in assay buffer (20 mM Tris-HCl pH7.5, 10 mM MgCl2, 0.1% bovine serum albumin) containing enzyme and substrate. […] The substrate cyclic nucleotide (cAMP or cGMP) concentration used in the assay was 20 nM for PDE10, and 100 nM for other PDEs. The inhibitory effect of compound was determined by incubating various concentration of inhibitor in the enzymatic assay. […] Next, the compound at varying concentration was mixed with PDE enzyme. The reaction was initiated by addition of cyclic nucleotide substrate, and incubated for 60 minutes at 29 C. The reaction was stopped by addition of lysis buffer from assay kit. The cAMP-d2 and anti-cAMP cryptate in the lysis buffer detected the level of cAMP left from the PDE hydrolysis reaction. […] Thus, IC50 value of inhibitor can be obtained by plotting inhibitor concentration against PDE activity at that concentration.

[1] = Microsomal half-life / microsomal clearance, rat liver microsomes; format: in vitro ADME; conditions: 0.5 μM test substance, 0.25 mg microsomal protein/ml, pH 7.4, 37° C.
Protocol: (§1) The metabolic stability of the compounds of the invention was determined in the following assay.
(§2) The test substances were incubated in a concentration of 0.5 μM as follows:
(§3) 0.5 μM test substance are preincubated together with liver microsomes from different species (from rat, human or other species) (0.25 mg of microsomal protein/ml) in 0.05 M potassium phosphate buffer of pH 7.4 in microtiter plates at 37° C. for 5 min. The reaction is started by adding NADPH (1 mg/mL). After 0, 5, 10, 15, 20 and 30 min, 50 μl aliquots are removed, and the reaction is immediately stopped and cooled with the same volume of acetonitrile. The samples are frozen until analyzed. The remaining concentration of undegraded test substance is determined by MSMS. The half-life (T1/2) is determined from the gradient of the signal of test substance/unit time plot, it being possible to calculate the half-life of the test substance, assuming first order kinetics, from the decrease in the concentration of the compound with time. The microsomal clearance (mCl) is calculated from mCl=ln 2/T1/2/(content of microsomal protein in mg/ml)×1000 [ml/min/mg] (modified from references: Di, The Society for Biomoleculur Screening, 2003, 453-462; Obach, DMD, 1999 vol 27. N 11, 1350-1359).

[2] = Microsomal half-life / microsomal clearance, human liver microsomes; format: in vitro ADME; conditions: 0.5 μM test substance, 0.25 mg microsomal protein/ml, pH 7.4, 37° C.
Protocol: as §1, §2, §3

rats [3] = conditions: cited from earlier work
rats [4] = conditions: cited from earlier work; remark: listed apart in the source
rats [5] = conditions: cited from earlier work; remark: listed apart in the source

PDE10A, sequence (Q9Y233 whole entry, species assumed, canonical isoform): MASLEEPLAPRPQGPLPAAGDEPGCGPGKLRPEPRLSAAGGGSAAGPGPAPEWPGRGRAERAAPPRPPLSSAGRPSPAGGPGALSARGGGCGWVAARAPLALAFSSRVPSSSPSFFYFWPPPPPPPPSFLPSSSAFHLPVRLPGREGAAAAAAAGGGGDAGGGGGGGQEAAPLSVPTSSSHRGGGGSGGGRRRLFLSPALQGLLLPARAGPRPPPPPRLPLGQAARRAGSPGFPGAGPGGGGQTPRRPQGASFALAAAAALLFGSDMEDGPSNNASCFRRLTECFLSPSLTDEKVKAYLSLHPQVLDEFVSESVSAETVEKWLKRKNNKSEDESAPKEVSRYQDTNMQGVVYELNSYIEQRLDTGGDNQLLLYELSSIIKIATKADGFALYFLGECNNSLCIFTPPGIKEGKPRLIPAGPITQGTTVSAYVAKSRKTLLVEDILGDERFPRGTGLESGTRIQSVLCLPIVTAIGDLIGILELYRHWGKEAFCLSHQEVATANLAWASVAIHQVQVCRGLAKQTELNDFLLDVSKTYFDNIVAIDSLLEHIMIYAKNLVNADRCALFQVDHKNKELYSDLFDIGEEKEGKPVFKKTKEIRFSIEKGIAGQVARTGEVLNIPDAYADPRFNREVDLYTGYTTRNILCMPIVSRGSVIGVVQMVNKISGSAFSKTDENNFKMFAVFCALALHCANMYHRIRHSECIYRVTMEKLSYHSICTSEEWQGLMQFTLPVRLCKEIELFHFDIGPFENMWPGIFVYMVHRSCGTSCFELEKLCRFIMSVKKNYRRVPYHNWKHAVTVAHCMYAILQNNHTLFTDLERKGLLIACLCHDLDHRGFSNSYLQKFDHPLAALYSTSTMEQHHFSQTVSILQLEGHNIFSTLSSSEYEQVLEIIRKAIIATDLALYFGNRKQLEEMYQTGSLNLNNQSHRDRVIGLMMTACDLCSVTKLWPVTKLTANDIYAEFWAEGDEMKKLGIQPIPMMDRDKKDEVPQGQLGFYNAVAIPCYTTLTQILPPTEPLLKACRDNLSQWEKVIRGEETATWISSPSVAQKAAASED

| SMILES | IC50 (PDE10A) [nM] | Rat mCl [1] | Human mCl [2] | catalepsy on its own (rats [3]; papaverine alone) | cataleptic effect of the D2 receptor antagonist haloperidol (rats [3]; with haloperidol) | hyperactivity induced by PCP (rats [4]) | reduction of amphetamine-induced hyperactivity (rats [5]) |
| --- | --- | --- | --- | --- | --- | --- | --- |
| Cc1cccc(C#Cc2ccc(-c3nn(C)cc3-c3cccnc3)cc2)n1.O=C(O)C(F)(F)F [Example 29, 2-methyl-6-[2-[4-[1-methyl-4-(3-pyridyl)pyrazol-3-yl]phenyl]ethynyl]pyridine; 2,2,2-trifluoroacetic acid] | 200 to 500 | ++ (<100 μl min^−1 mg^−1) | ++ (<100 μl min^−1 mg^−1) | – | – | – | – |
| COc1ccc(Cc2nccc3cc(OC)c(OC)cc23)cc1OC [Papaverine, papaverine] | – | – | – | did not cause catalepsy on its own | potentiated the cataleptic effect | reduced hyperactivity | insignificant |
| Cn1cc(-c2ccncc2)c(-c2ccc(C#Cc3ccccn3)cc2)n1 [Example 2, 2-((4-(1-methyl-4-(pyridin-4-yl)-1H-pyrazol-3-yl)phenyl)ethynyl)pyridine] | < 100 | ++ (<100 μl min^−1 mg^−1) | ++ (<100 μl min^−1 mg^−1) | – | – | – | – |
